Source: US10167279B2 (NOVARTIS AG, priority 2014, dated 2019)

Key:
b-Raf (V600E) = b-Raf (V600E) (Homo sapiens (Human), UniProt P15056, V600E); experiment: In vitro Raf activity determination (Alpha Screen, phospho-MEK), b-Raf (V600E); type: biochemical; conditions: ATP 10 μM, 60 min pre-incubation, 3 hours reaction
C-Raf FL = C-Raf FL (Homo sapiens (Human), UniProt P04049, Y340E/Y341E); experiment: In vitro Raf activity determination (Alpha Screen, phospho-MEK), C-Raf FL (full length, Y340E/Y341E); type: biochemical; conditions: ATP 1 μM; 60 min pre-incubation; 1 hour reaction; column head does not say FL or TR
Procedure, shortened: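 Sf9-expressed C-Raf incubated with biotinylated kinase-dead MEK1 (K97R) in 50 mM Tris pH 7.5, 15 mM MgCl2, 0.01% BSA, 1 mM DTT with compound, 60 min at room temperature. Phospho-MEK detected by anti-p-MEK AlphaScreen luminescence; IC50 by non-linear regression.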

C-Raf FL, sequence (P04049 whole entry Y340E/Y341E): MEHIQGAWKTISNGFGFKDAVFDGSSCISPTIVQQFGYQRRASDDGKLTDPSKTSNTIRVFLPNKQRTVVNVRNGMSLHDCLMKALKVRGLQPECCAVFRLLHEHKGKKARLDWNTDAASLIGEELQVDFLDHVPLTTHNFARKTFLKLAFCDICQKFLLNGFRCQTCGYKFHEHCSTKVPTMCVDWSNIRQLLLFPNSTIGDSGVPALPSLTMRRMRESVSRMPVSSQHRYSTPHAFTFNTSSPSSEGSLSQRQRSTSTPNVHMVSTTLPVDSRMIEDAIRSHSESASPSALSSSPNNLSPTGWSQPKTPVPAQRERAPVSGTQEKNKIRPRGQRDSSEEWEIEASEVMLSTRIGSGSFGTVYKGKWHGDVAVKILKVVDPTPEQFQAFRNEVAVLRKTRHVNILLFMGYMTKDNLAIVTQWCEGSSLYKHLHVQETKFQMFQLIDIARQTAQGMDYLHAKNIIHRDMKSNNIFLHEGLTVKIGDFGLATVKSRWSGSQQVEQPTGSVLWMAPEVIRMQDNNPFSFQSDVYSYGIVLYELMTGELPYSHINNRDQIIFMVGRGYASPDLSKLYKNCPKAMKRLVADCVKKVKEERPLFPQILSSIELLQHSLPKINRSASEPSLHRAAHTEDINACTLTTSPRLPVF
C-Raf FL, sequence (P63104 whole entry partner): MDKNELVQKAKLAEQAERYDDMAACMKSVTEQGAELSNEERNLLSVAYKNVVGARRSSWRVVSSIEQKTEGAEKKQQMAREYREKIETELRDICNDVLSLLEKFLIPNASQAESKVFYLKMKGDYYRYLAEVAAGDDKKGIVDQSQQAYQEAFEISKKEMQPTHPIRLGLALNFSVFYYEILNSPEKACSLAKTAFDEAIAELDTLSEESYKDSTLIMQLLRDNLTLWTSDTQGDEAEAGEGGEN
b-Raf (V600E), sequence (P15056 whole entry V600E): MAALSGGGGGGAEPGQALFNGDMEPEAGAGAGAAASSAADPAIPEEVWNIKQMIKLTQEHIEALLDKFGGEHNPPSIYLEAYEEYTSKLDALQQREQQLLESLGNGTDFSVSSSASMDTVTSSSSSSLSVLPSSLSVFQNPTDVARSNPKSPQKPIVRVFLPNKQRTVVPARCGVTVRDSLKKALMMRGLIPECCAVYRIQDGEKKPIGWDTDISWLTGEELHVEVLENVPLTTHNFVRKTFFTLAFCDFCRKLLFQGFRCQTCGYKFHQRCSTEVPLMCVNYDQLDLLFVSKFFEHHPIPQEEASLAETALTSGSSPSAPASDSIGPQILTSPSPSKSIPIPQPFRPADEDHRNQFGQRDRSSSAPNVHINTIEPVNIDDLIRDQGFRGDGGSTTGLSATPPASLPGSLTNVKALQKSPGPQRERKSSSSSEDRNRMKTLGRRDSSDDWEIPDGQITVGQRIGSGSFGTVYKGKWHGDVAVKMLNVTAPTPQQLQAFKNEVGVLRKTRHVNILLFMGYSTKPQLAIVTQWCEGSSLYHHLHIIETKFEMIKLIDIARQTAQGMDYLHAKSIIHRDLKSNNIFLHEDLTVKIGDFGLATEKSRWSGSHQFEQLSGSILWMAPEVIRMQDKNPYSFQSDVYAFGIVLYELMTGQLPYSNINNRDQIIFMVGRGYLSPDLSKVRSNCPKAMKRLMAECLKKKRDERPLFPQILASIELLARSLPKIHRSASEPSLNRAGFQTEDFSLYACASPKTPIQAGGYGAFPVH

SMILES | IC50 (b-Raf (V600E)) [nM] | IC50 (C-Raf FL) [nM]
CCOc1ncc(-c2cc(NC(=O)c3ccnc(C(F)(F)F)c3)ccc2C)cc1C1(O)COC1 [Example 124, N-(3-(6-ethoxy-5-(3-hydroxyoxetan-3-yl)pyridin-3-yl)-4-methylphenyl)-2-(trifluoromethyl)isonicotin-amide] | 2.28 | 0.372
Cc1ncc(NC(=O)c2cc(C(C)(C)C#N)ccn2)cc1-c1cccc(C2(C)COC2)c1 [Example 126, 4-(2-cyanopropan-2-yl)-N-(6-methyl-5-(3-(3-methyloxetan-3-yl)phenyl)pyridin-3-yl)picolinamide] | 7.74 | 1.97
CCOc1nnc(-c2cc(NC(=O)c3ccnc(C(C)(F)F)c3)cnc2C)cc1C1(C)COC1 [Example 127, 2-(1,1-difluoroethyl)-N-(5-(6-ethoxy-5-(3-methyloxetan-3-yl)pyridazin-3-yl)-6-methylpyridin-3-yl)isonicotinamide] | 3.15 | 0.987
CCOc1nnc(-c2cc(NC(=O)c3ccnc(C(C)(C)F)c3)cnc2C)cc1C1(C)COC1 [Example 128, N-(5-(6-ethoxy-5-(3-methyloxetan-3-yl)pyridazin-3-yl)-6-methylpyridin-3-yl)-2-(2-fluoropropan-2-yl)isonicotinamide] | 2.15 | 0.633
CCOc1nnc(-c2cc(NC(=O)c3cc(CN(C)C)cc(C(F)(F)F)c3)cnc2C)cc1C1(C)COC1 [Example 129, 3-((dimethylamino)methyl)-N-(5-(6-ethoxy-5-(3-methyloxetan-3-yl)pyridazin-3-yl)-6-methylpyridin-3-yl)-5-(trifluoromethyl)benzamide] | 23.4 | 3.54
CCOc1ncc(-c2cc(NC(=O)c3cc(C(C)(C)N)cc(C(F)(F)F)c3)cnc2C)cc1C1(F)COC1 [Example 130, 3-(2-aminopropan-2-yl)-N-(6′-ethoxy-5′-(3-fluorooxetan-3-yl)-2-methyl-[3,3′-bipyridin]-5-yl)-5-(trifluoromethyl)benzamide] | 20.1 | 3.09
CCOc1ncc(-c2cc(NC(=O)c3ccnc(C(C)(C)F)c3)cnc2C)cc1C1(CF)COC1 [Example 131, N-(6′-ethoxy-5′-(3-(fluoromethyl)oxetan-3-yl)-2-methyl-[3,3′-bipyridin]-5-yl)-2-(2-fluoropropan-2-yl)isonicotinamide] | 1.3 | 0.31
Cc1ccc(NC(=O)c2ccnc(C(C)(F)F)c2)cc1-c1cnc(-c2cnn(C)c2)c(C2(O)COC2)c1 [Example 144, 2-(1,1-difluoroethyl)-N-(3-(5-(3-hydroxyoxetan-3-yl)-6-(1-methyl-1H-pyrazol-4-yl)pyridin-3-yl)-4-methylphenyl)isonicotin-amide] | 1.67 | 0.364
COc1ncc(-c2cc(C(=O)Nc3ccnc(S(C)(=O)=O)c3)ccc2C)cc1C1(O)COC1 [Example 145, 3-(5-(3-hydroxyoxetan-3-yl)-6-methoxypyridin-3-yl)-4-methyl-N-(2-(methylsulfonyl)pyridin-4-yl)benzamide] | 49.3 | 7.29
COc1ncc(-c2cc(C(=O)Nc3cccc(C(C)(C)C#N)c3)ccc2C)cc1C1(O)COC1 [Example 146, N-(3-(2-cyanopropan-2-yl)phenyl)-3-(5-(3-hydroxyoxetan-3-yl)-6-methoxypyridin-3-yl)-4-methylbenzamide] | 3.31 | 0.801
